Reference: PubChem BioAssay (NCI)
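In this assay, cells in 96-well plates receive the compound at five concentrations for 48 hours. Endpoints are linearly interpolated between the surrounding concentrations. GI50 is the concentration that inhibits growth by half. TGI marks complete inhibition of growth.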

What was measured:
Assay in all cases: DTP human tumour cell line panel, 48 h
[1] = system: 786-0 renal
[2] = system: A498 renal
[3] = system: A549 NSCLC
[4] = system: ACHN renal
[5] = system: BT-549 breast
[6] = system: CAKI-1 renal
[7] = system: CCRF-CEM leukemia
[8] = system: COLO 205 colon
[9] = system: DU-145 prostate
[10] = system: EKVX NSCLC
[11] = system: HCC-2998 colon
[12] = system: HCT-116 colon
[13] = system: HCT-15 colon
[14] = system: HL-60(TB) leukemia
[15] = system: HOP-62 NSCLC
[16] = system: HOP-92 NSCLC
[17] = system: HS 578T breast
[18] = system: HT29 colon
[19] = system: IGROV1 ovarian
[20] = system: K-562 leukemia
[21] = system: KM12 colon
[22] = system: LOX IMVI melanoma
[23] = system: M14 melanoma
[24] = system: MALME-3M melanoma
[25] = system: MCF7 breast
[26] = system: MDA-MB-231 breast
[27] = system: MDA-MB-435
[28] = system: MDA-MB-468 breast
[29] = system: MOLT-4 leukemia
[30] = system: NCI-H226 lung
[31] = system: NCI-H23 lung
[32] = system: NCI-H460 lung
[33] = system: NCI-H522 lung
[34] = system: OVCAR-3 ovarian
[35] = system: OVCAR-4 ovarian
[36] = system: OVCAR-5 ovarian
[37] = system: OVCAR-8 ovarian
[38] = system: PC-3 prostate
[39] = system: RPMI-8226 leukemia
[40] = system: RXF 393 renal
[41] = system: SF-268 CNS
[42] = system: SF-295 CNS
[43] = system: SF-539 CNS
[44] = system: SK-MEL-2 melanoma
[45] = system: SK-MEL-28 melanoma
[46] = system: SK-MEL-5 melanoma
[47] = system: SK-OV-3 ovarian
[48] = system: SN12C renal
[49] = system: SNB-19 CNS
[50] = system: SNB-75 CNS
[51] = system: SR leukemia
[52] = system: SW-620 colon
[53] = system: T-47D breast
[54] = system: TK-10 renal
[55] = system: U251 CNS
[56] = system: UACC-257 melanoma
[57] = system: UACC-62 melanoma
[58] = system: UO-31 renal

**Q.** How did the GI50 [1] turn out when `O=C(c1ccc(Cl)cc1)C1[C@H](c2ccccc2Br)[C@@H](c2ccccc2)NC12C(=O)Nc1ccccc12` (stereo partly specified) was run?
**A.** 7.3 µM

**Q.** And the TGI [1]?
**A.** 21.9 µM

**Q.** And the GI50 [2]?
**A.** 8.75 µM

**Q.** What about the TGI [2] of the same compound?
**A.** 21.6 µM

**Q.** And the GI50 [3]?
**A.** 2.71 µM

**Q.** And the TGI [3]?
**A.** 25 µM

**Q.** And the GI50 [4]?
**A.** 6.01 µM

**Q.** And the TGI [4]?
**A.** 44.4 µM

**Q.** What about the GI50 [5] of the same compound?
**A.** 2.4 µM

**Q.** What about the TGI [5] of the same compound?
**A.** 10.5 µM

**Q.** And the GI50 [6]?
**A.** 1.67 µM

**Q.** And the TGI [6]?
**A.** > 56 µM

**Q.** What about the GI50 [7] of the same compound?
**A.** 3.27 µM

**Q.** What about the TGI [7] of the same compound?
**A.** 29.8 µM

**Q.** And the GI50 [8]?
**A.** 7.71 µM

**Q.** And the TGI [8]?
**A.** 15.6 µM

**Q.** What about the GI50 [9] of the same compound?
**A.** 2.66 µM

**Q.** And the TGI [9]?
**A.** 16.4 µM

**Q.** And the GI50 [10]?
**A.** 6.22 µM

**Q.** And the TGI [10]?
**A.** > 56 µM

**Q.** What about the GI50 [11] of the same compound?
**A.** 6.32 µM

**Q.** And the TGI [11]?
**A.** 17.8 µM

**Q.** What about the GI50 [12] of the same compound?
**A.** 2.15 µM

**Q.** What about the TGI [12] of the same compound?
**A.** 9.06 µM

**Q.** And the GI50 [13]?
**A.** 4.03 µM

**Q.** And the TGI [13]?
**A.** > 56 µM

**Q.** And the GI50 [14]?
**A.** 1.92 µM

**Q.** What about the TGI [14] of the same compound?
**A.** 19.1 µM

**Q.** What about the GI50 [15] of the same compound?
**A.** 6.54 µM

**Q.** What about the TGI [15] of the same compound?
**A.** 16.5 µM

**Q.** And the GI50 [16]?
**A.** 2.06 µM

**Q.** What about the TGI [16] of the same compound?
**A.** 14.5 µM

**Q.** And the GI50 [17]?
**A.** 2.51 µM

**Q.** What about the TGI [17] of the same compound?
**A.** 15.6 µM

**Q.** What about the GI50 [18] of the same compound?
**A.** 2.46 µM

**Q.** What about the TGI [18] of the same compound?
**A.** 9.82 µM

**Q.** And the GI50 [19]?
**A.** 5.92 µM

**Q.** What about the TGI [19] of the same compound?
**A.** 26.1 µM

**Q.** And the GI50 [20]?
**A.** 2.04 µM

**Q.** And the TGI [20]?
**A.** 28.3 µM

**Q.** And the GI50 [21]?
**A.** 7.5 µM

**Q.** And the TGI [21]?
**A.** 25.2 µM

**Q.** And the GI50 [22]?
**A.** 1.99 µM

**Q.** And the TGI [22]?
**A.** 8.86 µM

**Q.** And the GI50 [23]?
**A.** 4.86 µM

**Q.** And the TGI [23]?
**A.** 13.7 µM

**Q.** What about the GI50 [24] of the same compound?
**A.** 6.46 µM

**Q.** What about the TGI [24] of the same compound?
**A.** 14.5 µM

**Q.** What about the GI50 [25] of the same compound?
**A.** 1.81 µM

**Q.** And the TGI [25]?
**A.** > 56 µM

**Q.** And the GI50 [26]?
**A.** 1.72 µM

**Q.** And the TGI [26]?
**A.** 7.13 µM

**Q.** And the GI50 [27]?
**A.** 2.58 µM

**Q.** What about the TGI [27] of the same compound?
**A.** 10.8 µM

**Q.** What about the GI50 [28] of the same compound?
**A.** 1.11 µM

**Q.** What about the TGI [28] of the same compound?
**A.** 3.33 µM

**Q.** And the GI50 [29]?
**A.** 2.06 µM

**Q.** And the TGI [29]?
**A.** 18.5 µM

**Q.** And the GI50 [30]?
**A.** 3.85 µM

**Q.** And the TGI [30]?
**A.** 13.6 µM

**Q.** And the GI50 [31]?
**A.** 5.78 µM

**Q.** And the TGI [31]?
**A.** 17.3 µM

**Q.** What about the GI50 [32] of the same compound?
**A.** 2.3 µM

**Q.** What about the TGI [32] of the same compound?
**A.** 11.2 µM

**Q.** What about the GI50 [33] of the same compound?
**A.** 1.3 µM

**Q.** What about the TGI [33] of the same compound?
**A.** 5.72 µM

**Q.** What about the GI50 [34] of the same compound?
**A.** 2.39 µM

**Q.** And the TGI [34]?
**A.** 14 µM

**Q.** What about the GI50 [35] of the same compound?
**A.** 7.11 µM

**Q.** What about the TGI [35] of the same compound?
**A.** > 56 µM

**Q.** What about the GI50 [36] of the same compound?
**A.** 6.34 µM

**Q.** And the TGI [36]?
**A.** 29.7 µM

**Q.** And the GI50 [37]?
**A.** 6.72 µM

**Q.** And the TGI [37]?
**A.** 19.9 µM

**Q.** What about the GI50 [38] of the same compound?
**A.** 2.03 µM

**Q.** What about the TGI [38] of the same compound?
**A.** 18.6 µM

**Q.** What about the GI50 [39] of the same compound?
**A.** 5.43 µM

**Q.** And the TGI [39]?
**A.** 32.6 µM

**Q.** What about the GI50 [40] of the same compound?
**A.** 1.77 µM

**Q.** And the TGI [40]?
**A.** 7.57 µM

**Q.** What about the GI50 [41] of the same compound?
**A.** 2.92 µM

**Q.** And the TGI [41]?
**A.** 40.2 µM

**Q.** And the GI50 [42]?
**A.** 3.79 µM

**Q.** And the TGI [42]?
**A.** 15.2 µM

**Q.** What about the GI50 [43] of the same compound?
**A.** 7.14 µM

**Q.** And the TGI [43]?
**A.** 15.7 µM

**Q.** What about the GI50 [44] of the same compound?
**A.** 4.44 µM

**Q.** And the TGI [44]?
**A.** 11.9 µM

**Q.** What about the GI50 [45] of the same compound?
**A.** 7.44 µM

**Q.** What about the TGI [45] of the same compound?
**A.** 16.3 µM

**Q.** What about the GI50 [46] of the same compound?
**A.** 2.42 µM

**Q.** And the TGI [46]?
**A.** 9.07 µM

**Q.** What about the GI50 [47] of the same compound?
**A.** 3.87 µM

**Q.** And the TGI [47]?
**A.** 37 µM

**Q.** And the GI50 [48]?
**A.** 2.74 µM

**Q.** And the TGI [48]?
**A.** 10 µM

**Q.** What about the GI50 [49] of the same compound?
**A.** 10.8 µM

**Q.** What about the TGI [49] of the same compound?
**A.** > 56 µM

**Q.** And the GI50 [50]?
**A.** 0.765 µM

**Q.** What about the TGI [50] of the same compound?
**A.** 27.9 µM

**Q.** And the GI50 [51]?
**A.** 2 µM

**Q.** And the TGI [51]?
**A.** 14 µM

**Q.** And the GI50 [52]?
**A.** 3.43 µM

**Q.** And the TGI [52]?
**A.** 33.9 µM

**Q.** And the GI50 [53]?
**A.** 3.46 µM

**Q.** What about the TGI [53] of the same compound?
**A.** 49 µM

**Q.** What about the GI50 [54] of the same compound?
**A.** 9.48 µM

**Q.** What about the TGI [54] of the same compound?
**A.** 40.7 µM

**Q.** And the GI50 [55]?
**A.** 3.16 µM

**Q.** What about the TGI [55] of the same compound?
**A.** 16 µM

**Q.** What about the GI50 [56] of the same compound?
**A.** 4.84 µM

**Q.** What about the TGI [56] of the same compound?
**A.** 20.7 µM

**Q.** What about the GI50 [57] of the same compound?
**A.** 2.11 µM

**Q.** And the TGI [57]?
**A.** 8.87 µM

**Q.** What about the GI50 [58] of the same compound?
**A.** 2.49 µM

**Q.** What about the TGI [58] of the same compound?
**A.** 29.3 µM
